Measurements published in US20160052918A1, “SMALL COMPOUNDS TARGETING TACC3” (JAPANESE FOUNDATION FOR CANCER RESEARCH, priority 2012, published 2016).
In brackets after ≈: the same amount, converted by molar mass.

Columns and labels:
[1] = target: T1, TACC3-DsRed fusion protein (Homo sapiens, UniProt Q9Y6A5); assay: Chemical array screening for compounds binding to TACC3-DsRed fusion protein; conditions: compound immobilized on chemical array, cell lysate
T1 construct: expressed in transfected cells; host or cells: HEK293T
Experimental: The present inventors screened for compounds targeting at TACC3 using a chemical array (FIG. 1).
According to the protocol of Miyazaki et al. (Non Patent Literature 13), a cell lysate containing a TACC3-DsRed fusion protein was contacted with the chemical array to screen for a compound binding to the TACC3-DsRed fusion protein (FIG. 1, upper diagram).
The cell lysate containing a TACC3-DsRed fusion protein is prepared as follows.
Human TACC3 cDNA was cloned into pDsRed-Express-N1 (Registered Trade Mark) (manufactured by Clontech Laboratories, Inc.), which was then transferred to HEK293T cells. Forty eight hours after transfection, the cells were collected. The obtained cells were sonicated in PBS and centrifuged for removal of insoluble substances to obtain a cell lysate. The cell lysate was confirmed the presence of the TACC3-DsRed fusion protein using anti-TACC3 and anti-DsRed antibodies.
The cell lysate containing a TACC3-DsRed fusion protein was contacted with the chemical array. After washing, the TACC3-DsRed fusion protein bound with a compound immobilized on the chemical array was detected. The detection of the TACC3-DsRed fusion protein with a compound was carried out by the excitation of a chemical array slide with a wavelength of 532 nm and the detection of fluorescence at 575 nm

cultured cells = assay: Visual screening (microscopic observation) for abnormal cell division in cultured cells; assay type: cell-based; conditions: added into culture medium
Text: As a result of screening 6800 compounds, 70 compounds were bound with the TACC3-DsRed fusion protein. These 70 compounds recognized to bind to the TACC3-DsRed fusion protein were each added into a culture medium of cultured cells. Compounds inducing abnormal cell division were selected by microscopic observation. As a result, 4 compounds were screened for as compounds inhibiting cell division (FIG. 1, lower diagram, visual screening).

[2] = test system: SKOV-3 cells expressing EGFP-α-tubulin; assay: Mitotic arrest of synchronized EGFP-α-tubulin-expressing SKOV-3 cells, time-lapse single-cell analysis; assay type: cell-based; conditions: for EC50: Homo sapiens, SK-OV-3, 72 h, mitotic arrest, EC50=50% arrest rate, double thymidine block, time-lapse 3 days, at least 50 cells, read-out: SKOV3 EC50; for inhibitory effects on cell growth: summary of Table 2 (SKOV-3 mitotic arrest and lymphoma cell death); for Remarks: start of mitosis: At 66.7 μg/ml; for Remarks: cytotoxic: Table 2 remark
Experimental: The EGFP-α-tubulin-expressing cells used in the assay will be described. In order to observe mitosis under a fluorescence microscope, cells expressing EGFP-α-tubulin (fusion protein of a fluorescent protein, EGFP, and α-tubulin) were prepared. A system observable under a fluorescence microscope without cell fixation was prepared.
Ovary cancer cells SKOV-3 were cultured in an RPMI1640 medium supplemented with 5% fetal bovine serum. Stable cells expressing EGFP-α-tubulin were transduced by lentiviral transduction using pLenti4/V5-DEST vectors (Registered Trade Mark) (manufactured by Invitrogen Corp.) and selected by the FACS sorting of infected cells using Zeocin (Registered Trade Mark) and subsequent FACSAria (Registered Trade Mark) (Becton, Dickinson and Company).
The compounds NPD2448, NPD2568, NPD3574, NPD4089, and C7—O-propylated NPD3574 were each added at varying concentrations to the culture medium of SKOV-3 cells expressing EGFP-α-tubulin and analyzed for their effect on cell division.
The SKOV-3 cells expressing EGFP-α-tubulin were synchronized by thymidine block to analyze the effect on cell division of each compound. As shown in the upper part of FIG. 2, each compound was added to the culture medium after the 1st thymidine block. After synchronization by the second thymidine block, images were taken every 2 minutes for 3 days using Leica AF6000 and ×20/0.5 Plan Fluotar objective lens in a phenol red-free RPMI1640 medium supplemented with 5% fetal bovine serum. These time-lapse images were analyzed using ImageJ 1.42a software, and the time of mitotic arrest was determined by visual judgment. The duration of mitosis was manually determined from the image sequences of at least 50 cells.
The mitotic arrest (EC50=50% arrest rate) was tested by the microscopic analysis of individual single cells.
EGFP-α-tubulin-expressing SKOV-3 cells synchronized by double thymidine block in the same way as in Example 2 were treated with each synthesized compound and subjected to time-lapse photography for 3 days. At least 50 cells were observed. The time of arrest of each cell was calculated, and EC50 was determined therefrom.
EGFP-α-tubulin-expressing SKOV-3 cells supplemented with each of SPL-A and SPL-B at varying concentrations were synchronized by double thymidine block in the same way as in Example 2. Analysis based on single cells was conducted by time-lapse photography. The duration of mitosis was measured from the image sequences of at least 50 cells.

mouse lymphoma cell line = assay: Cell death of lymphoma (survival rate, WST-1); assay type: cell-based; conditions: 72 h, IC50=50% survival rate, three days
Experimental: The synthesized compounds were analyzed for their activity against cell death induction using a mouse lymphoma cell line (see Non Patent Literature 12), which was a cell line derived from thymic lymphoma developed in p53KO mouse.
The number of the lymphoma cells was adjusted to 1.2×10^5 cells/ml. The cells were inoculated at a concentration of 50 μl/well to a 96-well culture dish. A medium containing each RT compound as the novel compound of the present invention at twice the concentration of 50 μl was further added thereto (final concentration: 0.021 to 13.3 μg/ml). Three days after cultivation, the survival rate was calculated using WST-1 reagent (manufactured by F. Hoffmann-La Roche, Ltd.).

[3] = Solubility remarks of Table 2; assay type: physicochemical; conditions: Table 2 remark
[4] = test system: p53-knockout cells derived from human colon cancer cells HCT-116; assay: Cell growth by WST assay, combined use of SPL-B and paclitaxel; assay type: cell-based; conditions: HCT-116, 72 h, three days
Experimental: p53-knockout cells derived from human colon cancer cells HCT-116 were cultured after combined administration of paclitaxel and SPL-B. Three days after cultivation, the survival rate of the cells was measured by WST assay.

Row | EC50 [2] | Structure (SMILES) | inhibitory effects on cell growth [2] | IC50 (mouse lymphoma cell line) | also measured
1 | – | CCCN(CCC)Cc1c(O)ccc2c(-c3cc4ccccc4oc3=O)cc(=O)oc12 [NPD2448] | – | – | binding to the TACC3-DsRed fusion protein [1]: bound to the TACC3-DsRed fusion protein; abnormal cell division (cultured cells): induced abnormal cell division
2 | – | O=c1cc(-c2cc3cc(Cl)ccc3oc2=O)c2ccc(O)c(CN3CCCCCC3)c2o1 [NPD2568] | – | – | binding to the TACC3-DsRed fusion protein [1]: bound to the TACC3-DsRed fusion protein; abnormal cell division (cultured cells): induced abnormal cell division
3 | 0.85 µg/mL (≈ 1.88 µM) | COCCN(CCOC)Cc1c(O)ccc2c(-c3cc4ccccc4oc3=O)cc(=O)oc12 [NPD3574] | remarkable inhibitory effects on cell growth | 1.26 µg/mL (≈ 2.79 µM) | binding to the TACC3-DsRed fusion protein [1]: bound to the TACC3-DsRed fusion protein; abnormal cell division (cultured cells): induced abnormal cell division
4 | – | CCCCN(C)Cc1c(O)ccc2c(-c3cc4cc(Br)ccc4oc3=O)cc(=O)oc12 [NPD4089] | – | – | binding to the TACC3-DsRed fusion protein [1]: bound to the TACC3-DsRed fusion protein; abnormal cell division (cultured cells): induced abnormal cell division
5 | > 66.7 µg/mL | COCCN(CCOC)Cc1c(O)ccc2c(C)cc(=O)oc12 [RT-001] | – | – | –
6 | > 13.3 µg/mL | CC(=O)OCc1c(OC(C)=O)ccc2c(-c3cc4ccccc4oc3=O)cc(=O)oc12 [RT-002] | remarkable inhibitory effects on cell growth | 8.3 µg/mL (≈ 19.7 µM) | Remarks: start of mitosis [2]: μg/ml, mitosis did not; Remarks: cytotoxic [2]: Cytotoxic. At 66.7
7 | 0.85 µg/mL (≈ 2.17 µM) | CCN(CC)Cc1c(O)ccc2c(-c3cc4ccccc4oc3=O)cc(=O)oc12 [RT-003] | remarkable inhibitory effects on cell growth | 5.08 µg/mL (≈ 13 µM) | –
8 | 8.49 µg/mL (≈ 21.6 µM) | CN(CCO)Cc1c(O)ccc2c(-c3cc4ccccc4oc3=O)cc(=O)oc12 [RT-004] | remarkable inhibitory effects on cell growth | > 13.3 µg/mL | –
9 | > 13.3 µg/mL | CN(C)CCNCc1c(O)ccc2c(-c3cc4ccccc4oc3=O)cc(=O)oc12 [RT-005] | remarkable inhibitory effects on cell growth | 5.37 µg/mL (≈ 13.2 µM) | Remarks: start of mitosis [2]: μg/ml, mitosis did not; Remarks: cytotoxic [2]: Cytotoxic. At 66.7
10 | 1.15 µg/mL (≈ 2.65 µM) | CCN(CCN(C)C)Cc1c(O)ccc2c(-c3cc4ccccc4oc3=O)cc(=O)oc12 [RT-006] | remarkable inhibitory effects on cell growth | 3.3 µg/mL (≈ 7.6 µM) | –
11 | 2.67 µg/mL (≈ 6.86 µM) | O=c1cc(-c2cc3ccccc3oc2=O)c2ccc(O)c(CN3CCCC3)c2o1 [RT-008] | remarkable inhibitory effects on cell growth | 9.77 µg/mL (≈ 25.1 µM) | –
12 | 2.68 µg/mL (≈ 6.64 µM) | O=c1cc(-c2cc3ccccc3oc2=O)c2ccc(O)c(CN3CCCCC3)c2o1 [RT-009] | remarkable inhibitory effects on cell growth | 10.1 µg/mL (≈ 25.1 µM) | –
13 | 0.94 µg/mL (≈ 2.25 µM) | CC1CCN(Cc2c(O)ccc3c(-c4cc5ccccc5oc4=O)cc(=O)oc23)CC1 [RT-010] | remarkable inhibitory effects on cell growth | 1.64 µg/mL (≈ 3.93 µM) | –
14 | 1.39 µg/mL (≈ 3.43 µM) | O=c1cc(-c2cc3ccccc3oc2=O)c2ccc(O)c(CN3CCOCC3)c2o1 [RT-012] | remarkable inhibitory effects on cell growth | 2.05 µg/mL (≈ 5.06 µM) | –
15 | > 66.7 µg/mL | CCCOc1ccc2c(-c3cc4ccccc4oc3=O)cc(=O)oc2c1CN(CCOC)CCOC [RT-013] | – | – | –
16 | 8.76 µg/mL (≈ 18 µM) | O=c1cc(-c2cc3ccccc3oc2=O)c2ccc(O)c(CN3CCC(N4CCCCC4)CC3)c2o1 [RT-014] | remarkable inhibitory effects on cell growth | 8.25 µg/mL (≈ 17 µM) | –
17 | > 66.7 µg/mL | C#CCOc1ccc2c(-c3cc4ccccc4oc3=O)cc(=O)oc2c1CN(CCOC)CCOC [RT-017] | – | – | Remarks: solubility [3]: Insoluble
18 | > 66.7 µg/mL | O=c1cc(-c2cc3cc(Cl)ccc3oc2=O)c2ccc(O)cc2o1 [RT-018] | – | – | Remarks: solubility [3]: Poorly soluble in DMSO
19 | 0.16 µg/mL (≈ 0.378 µM) | O=c1cc(-c2cc3cc(F)ccc3oc2=O)c2ccc(O)c(CN3CCOCC3)c2o1 [RT-019] | remarkable inhibitory effects on cell growth | 0.12 µg/mL (≈ 0.283 µM) | –
20 | > 66.7 µg/mL | C=CCOc1ccc2c(-c3cc4ccccc4oc3=O)cc(=O)oc2c1CN(CCOC)CCOC [RT-021] | – | – | Remarks: solubility [3]: Insoluble
21 | > 66.7 µg/mL | COCCN(CCOC)Cc1c(OCC=C(C)C)ccc2c(-c3cc4ccccc4oc3=O)cc(=O)oc12 [RT-022] | – | – | Remarks: start of mitosis [2]: μg/ml, mitosis did not; Remarks: solubility [3]: Insoluble. At 66.7
22 | > 66.7 µg/mL | C=CCOc1ccc2c(-c3cc4ccccc4oc3=O)cc(=O)oc2c1C[N+]([O-])(CCOC)CCOC [RT-023] | – | – | –
23 | > 66.7 µg/mL | COCCN(CCOC)Cc1c(OCC(O)CO)ccc2c(-c3cc4ccccc4oc3=O)cc(=O)oc12 (stereo not shown) [RT-024] | – | – | –
24 | > 66.7 µg/mL | COCC[N+]([O-])(CCOC)Cc1c(OCC=C(C)C)ccc2c(-c3cc4ccccc4oc3=O)cc(=O)oc12 [RT-025] | – | – | –
25 | > 66.7 µg/mL | COCCN(CCOC)Cc1c(OCC(O)C(C)(C)O)ccc2c(-c3cc4ccccc4oc3=O)cc(=O)oc12 (stereo not shown) [RT-026] | – | – | –
26 | 6.56 µg/mL (≈ 12.4 µM) | COCCN(CCOC)Cc1c(O)ccc2c(-c3cc4cc(Br)ccc4oc3=O)cc(=O)oc12 [RT-028] | remarkable inhibitory effects on cell growth | 3.28 µg/mL (≈ 6.18 µM) | –
27 | 0.17 µg/mL (≈ 0.362 µM) | COCCN(CCOC)Cc1c(O)ccc2c(-c3cc4cc(F)ccc4oc3=O)cc(=O)oc12 [RT-029] | remarkable inhibitory effects on cell growth | 0.21 µg/mL (≈ 0.447 µM) | –
28 | > 66.7 µg/mL | O=c1cc(-c2cc3ccccc3oc2=O)c2ccc(O)cc2o1 [RT-030] | – | – | –
29 | – | CC(=O)O[C@H]1C(=O)[C@@]2(C)[C@H]([C@H](OC(=O)c3ccccc3)[C@]3(O)C[C@H](OC(=O)[C@H](O)[C@@H](NC(=O)c4ccccc4)c4ccccc4)C(C)=C1C3(C)C)[C@]1(OC(C)=O)CO[C@@H]1C[C@@H]2O [paclitaxel] | – | – | IC50 ([4]; adding SPL-B at 150 μM): 7.7 nM; IC50 ([4]; adding SPL-B at 300 μM): 7.54 nM; IC50 ([4]; in the absence of SPL-B): 8.34 nM
